From ChEMBL document CHEMBL5465560, “Selectivity Literature for EUbOPEN Chemogenomic Library” (2024)

Tests used:
[1] = target: T1, Serine/threonine-protein kinase NLK (Homo sapiens) (UniProt Q9UBE8); conditions: at 10 µM
T1 sequence (whole entry): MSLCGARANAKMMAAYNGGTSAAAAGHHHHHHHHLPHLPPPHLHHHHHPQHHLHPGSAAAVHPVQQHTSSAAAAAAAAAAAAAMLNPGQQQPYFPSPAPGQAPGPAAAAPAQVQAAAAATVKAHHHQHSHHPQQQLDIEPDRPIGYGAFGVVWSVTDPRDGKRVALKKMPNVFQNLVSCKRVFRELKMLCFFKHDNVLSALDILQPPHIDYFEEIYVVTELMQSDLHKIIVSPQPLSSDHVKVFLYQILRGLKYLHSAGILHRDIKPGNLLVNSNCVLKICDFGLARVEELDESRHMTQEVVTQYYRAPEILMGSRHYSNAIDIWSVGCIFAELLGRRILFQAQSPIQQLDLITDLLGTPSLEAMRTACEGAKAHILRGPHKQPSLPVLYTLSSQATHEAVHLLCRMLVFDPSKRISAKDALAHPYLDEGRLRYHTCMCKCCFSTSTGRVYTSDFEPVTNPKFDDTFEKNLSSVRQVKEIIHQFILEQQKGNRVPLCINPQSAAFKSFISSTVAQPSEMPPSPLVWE

[2] = target: T2, Bone morphogenetic protein receptor type-2 (Homo sapiens) (UniProt Q13873); assay: Selectivity interaction (KinomeScan (DiscoverX)) EUB0000655a BMPR2; conditions: at 10 µM
T2 sequence (whole entry): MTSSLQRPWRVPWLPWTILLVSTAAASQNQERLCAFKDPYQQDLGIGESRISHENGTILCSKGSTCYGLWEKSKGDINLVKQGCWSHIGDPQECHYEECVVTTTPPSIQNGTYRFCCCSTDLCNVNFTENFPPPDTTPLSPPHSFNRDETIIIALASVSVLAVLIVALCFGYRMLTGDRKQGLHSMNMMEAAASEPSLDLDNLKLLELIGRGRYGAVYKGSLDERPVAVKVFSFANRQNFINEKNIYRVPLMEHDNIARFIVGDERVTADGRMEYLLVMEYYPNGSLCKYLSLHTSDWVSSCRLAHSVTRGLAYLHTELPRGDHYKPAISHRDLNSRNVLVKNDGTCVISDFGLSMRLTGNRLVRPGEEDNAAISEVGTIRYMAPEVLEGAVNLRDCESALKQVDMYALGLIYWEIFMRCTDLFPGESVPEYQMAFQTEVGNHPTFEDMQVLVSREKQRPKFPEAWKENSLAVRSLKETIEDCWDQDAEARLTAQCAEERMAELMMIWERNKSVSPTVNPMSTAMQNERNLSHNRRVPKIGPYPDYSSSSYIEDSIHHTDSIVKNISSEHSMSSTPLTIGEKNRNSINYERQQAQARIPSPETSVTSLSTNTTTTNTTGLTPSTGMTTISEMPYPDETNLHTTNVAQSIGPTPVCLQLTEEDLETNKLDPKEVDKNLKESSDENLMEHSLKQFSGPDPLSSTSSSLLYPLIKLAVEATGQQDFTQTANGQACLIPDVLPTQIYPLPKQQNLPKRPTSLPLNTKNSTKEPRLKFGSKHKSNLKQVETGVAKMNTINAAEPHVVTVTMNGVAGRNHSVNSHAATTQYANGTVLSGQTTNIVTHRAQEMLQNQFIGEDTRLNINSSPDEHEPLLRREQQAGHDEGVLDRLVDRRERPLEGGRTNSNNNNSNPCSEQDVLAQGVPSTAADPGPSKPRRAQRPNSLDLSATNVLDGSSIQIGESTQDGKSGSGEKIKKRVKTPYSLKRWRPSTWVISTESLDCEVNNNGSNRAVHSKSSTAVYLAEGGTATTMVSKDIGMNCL

[3] = target: T3, Aurora kinase C (Homo sapiens) (UniProt Q9UQB9); assay: Selectivity interaction (KinomeScan (DiscoverX)) EUB0000045b AURKC
T3 sequence (whole entry): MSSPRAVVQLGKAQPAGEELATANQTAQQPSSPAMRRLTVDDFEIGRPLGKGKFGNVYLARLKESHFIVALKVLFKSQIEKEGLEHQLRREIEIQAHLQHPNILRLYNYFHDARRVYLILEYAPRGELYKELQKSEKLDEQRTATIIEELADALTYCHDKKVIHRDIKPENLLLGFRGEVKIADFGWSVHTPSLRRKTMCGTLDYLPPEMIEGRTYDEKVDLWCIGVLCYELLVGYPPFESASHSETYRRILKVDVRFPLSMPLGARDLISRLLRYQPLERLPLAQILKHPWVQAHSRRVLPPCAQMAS

[4] = target: T4, Inhibitor of nuclear factor kappa-B kinase subunit alpha (Homo sapiens) (UniProt O15111); conditions: at 10 µM
T4 sequence (whole entry): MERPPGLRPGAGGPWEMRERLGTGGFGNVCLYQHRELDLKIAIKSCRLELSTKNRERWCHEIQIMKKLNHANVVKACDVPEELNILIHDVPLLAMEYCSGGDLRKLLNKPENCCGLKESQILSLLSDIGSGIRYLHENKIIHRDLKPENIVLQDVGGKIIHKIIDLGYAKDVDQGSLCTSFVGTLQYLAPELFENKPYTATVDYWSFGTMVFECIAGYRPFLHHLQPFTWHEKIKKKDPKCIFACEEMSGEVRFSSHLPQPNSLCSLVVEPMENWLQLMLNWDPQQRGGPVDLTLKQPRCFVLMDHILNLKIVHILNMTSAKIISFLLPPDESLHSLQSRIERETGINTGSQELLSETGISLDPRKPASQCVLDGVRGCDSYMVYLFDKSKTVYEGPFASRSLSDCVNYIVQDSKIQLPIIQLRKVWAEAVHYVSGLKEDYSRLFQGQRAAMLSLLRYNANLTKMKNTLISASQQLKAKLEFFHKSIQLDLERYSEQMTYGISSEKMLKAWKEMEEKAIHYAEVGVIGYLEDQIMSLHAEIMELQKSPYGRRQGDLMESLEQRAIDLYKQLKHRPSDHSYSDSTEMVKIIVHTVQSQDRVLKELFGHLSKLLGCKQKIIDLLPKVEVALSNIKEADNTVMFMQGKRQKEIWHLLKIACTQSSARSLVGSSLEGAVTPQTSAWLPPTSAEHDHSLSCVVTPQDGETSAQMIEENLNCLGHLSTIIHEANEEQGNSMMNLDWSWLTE

[5] = target: Transient receptor potential cation channel subfamily M member 6 (Homo sapiens) (UniProt Q9BX84); assay: Selectivity interaction (KinomeScan (DiscoverX)) EUB0000666a TRPM6; conditions: at 10 µM
Sequence of Transient receptor potential cation channel subfamily M member 6 (Homo sapiens) (Q9BX84 whole entry): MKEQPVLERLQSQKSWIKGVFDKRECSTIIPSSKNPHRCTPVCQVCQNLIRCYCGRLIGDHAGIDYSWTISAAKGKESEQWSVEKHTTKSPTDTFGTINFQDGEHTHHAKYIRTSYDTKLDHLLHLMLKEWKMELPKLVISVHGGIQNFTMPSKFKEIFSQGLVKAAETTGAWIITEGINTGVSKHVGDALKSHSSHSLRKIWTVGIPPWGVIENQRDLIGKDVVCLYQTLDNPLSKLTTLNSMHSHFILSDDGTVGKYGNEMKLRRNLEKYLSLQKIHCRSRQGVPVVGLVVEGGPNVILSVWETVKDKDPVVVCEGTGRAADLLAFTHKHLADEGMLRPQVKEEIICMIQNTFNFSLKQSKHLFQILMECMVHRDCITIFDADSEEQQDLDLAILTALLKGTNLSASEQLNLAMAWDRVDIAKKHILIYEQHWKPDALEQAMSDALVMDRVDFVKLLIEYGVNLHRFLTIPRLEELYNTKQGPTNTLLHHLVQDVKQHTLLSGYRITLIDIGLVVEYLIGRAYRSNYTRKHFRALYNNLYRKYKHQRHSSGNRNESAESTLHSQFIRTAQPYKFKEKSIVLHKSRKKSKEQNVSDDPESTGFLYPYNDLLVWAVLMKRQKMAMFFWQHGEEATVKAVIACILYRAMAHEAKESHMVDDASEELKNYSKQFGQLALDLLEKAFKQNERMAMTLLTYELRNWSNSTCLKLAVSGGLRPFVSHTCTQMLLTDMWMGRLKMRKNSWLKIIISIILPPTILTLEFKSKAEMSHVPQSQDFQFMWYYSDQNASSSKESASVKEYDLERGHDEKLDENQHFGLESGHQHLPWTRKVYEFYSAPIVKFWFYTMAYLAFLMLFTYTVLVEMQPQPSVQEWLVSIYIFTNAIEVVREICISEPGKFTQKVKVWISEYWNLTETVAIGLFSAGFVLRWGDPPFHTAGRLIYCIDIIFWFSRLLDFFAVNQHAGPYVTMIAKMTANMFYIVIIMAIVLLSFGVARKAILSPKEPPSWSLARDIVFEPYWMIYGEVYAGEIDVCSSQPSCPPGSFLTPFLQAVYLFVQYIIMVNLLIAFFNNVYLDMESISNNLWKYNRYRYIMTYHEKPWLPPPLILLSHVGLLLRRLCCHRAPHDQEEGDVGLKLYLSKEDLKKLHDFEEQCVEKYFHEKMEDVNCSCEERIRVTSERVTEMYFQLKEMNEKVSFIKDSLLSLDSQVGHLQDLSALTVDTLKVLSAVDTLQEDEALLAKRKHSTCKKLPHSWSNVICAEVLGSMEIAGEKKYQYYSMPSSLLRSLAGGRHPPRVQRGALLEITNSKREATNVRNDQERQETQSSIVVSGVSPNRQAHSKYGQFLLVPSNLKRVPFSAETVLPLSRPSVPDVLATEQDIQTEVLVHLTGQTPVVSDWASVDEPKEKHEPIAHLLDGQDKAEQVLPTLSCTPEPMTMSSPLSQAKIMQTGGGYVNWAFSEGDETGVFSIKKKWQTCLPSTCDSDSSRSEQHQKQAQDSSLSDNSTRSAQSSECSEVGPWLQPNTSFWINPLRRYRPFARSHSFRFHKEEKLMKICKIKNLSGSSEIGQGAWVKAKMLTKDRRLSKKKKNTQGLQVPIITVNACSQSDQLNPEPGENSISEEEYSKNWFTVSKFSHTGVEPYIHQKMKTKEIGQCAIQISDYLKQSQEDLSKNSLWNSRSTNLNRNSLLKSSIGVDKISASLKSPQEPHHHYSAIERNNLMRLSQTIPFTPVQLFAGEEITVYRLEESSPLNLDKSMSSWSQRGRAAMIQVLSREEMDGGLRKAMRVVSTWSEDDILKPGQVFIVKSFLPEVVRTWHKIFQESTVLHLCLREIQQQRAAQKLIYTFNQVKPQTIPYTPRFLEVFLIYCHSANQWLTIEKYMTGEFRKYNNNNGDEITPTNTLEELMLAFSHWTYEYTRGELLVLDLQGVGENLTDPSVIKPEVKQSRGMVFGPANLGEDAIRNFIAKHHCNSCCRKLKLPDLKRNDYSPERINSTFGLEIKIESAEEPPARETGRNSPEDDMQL

[6] = target: Serine/threonine-protein kinase MARK2 (Homo sapiens) (UniProt Q7KZI7); assay: Selectivity interaction (Kinase screening (Nanosyn)) EUB0000604a MARK2
Sequence of Serine/threonine-protein kinase MARK2 (Homo sapiens) (Q7KZI7 whole entry): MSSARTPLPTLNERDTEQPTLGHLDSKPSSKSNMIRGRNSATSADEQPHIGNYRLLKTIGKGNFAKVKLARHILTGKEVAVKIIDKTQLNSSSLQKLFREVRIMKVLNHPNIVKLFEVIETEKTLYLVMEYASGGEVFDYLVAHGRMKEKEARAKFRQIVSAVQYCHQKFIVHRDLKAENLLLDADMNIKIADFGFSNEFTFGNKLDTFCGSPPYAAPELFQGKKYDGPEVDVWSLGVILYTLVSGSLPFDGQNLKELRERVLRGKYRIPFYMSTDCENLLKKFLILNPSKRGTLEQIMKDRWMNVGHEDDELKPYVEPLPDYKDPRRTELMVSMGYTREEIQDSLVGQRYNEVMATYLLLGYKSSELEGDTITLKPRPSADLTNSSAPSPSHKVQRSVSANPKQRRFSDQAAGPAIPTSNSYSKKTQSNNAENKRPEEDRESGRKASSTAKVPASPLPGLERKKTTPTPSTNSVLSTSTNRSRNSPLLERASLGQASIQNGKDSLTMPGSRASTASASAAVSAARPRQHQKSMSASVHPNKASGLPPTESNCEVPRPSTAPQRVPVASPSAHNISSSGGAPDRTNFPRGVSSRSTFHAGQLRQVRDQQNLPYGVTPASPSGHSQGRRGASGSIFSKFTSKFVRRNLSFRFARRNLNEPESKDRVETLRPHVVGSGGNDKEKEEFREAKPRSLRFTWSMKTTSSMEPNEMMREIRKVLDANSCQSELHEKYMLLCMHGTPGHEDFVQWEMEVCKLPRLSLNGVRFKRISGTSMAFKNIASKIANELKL

[7] = target: Angiopoietin-1 receptor (Homo sapiens) (UniProt Q02763); assay: Selectivity interaction (KinomeScan (DiscoverX)) EUB0000695a TEK; conditions: at 100 nM
Sequence of Angiopoietin-1 receptor (Homo sapiens) (Q02763 whole entry): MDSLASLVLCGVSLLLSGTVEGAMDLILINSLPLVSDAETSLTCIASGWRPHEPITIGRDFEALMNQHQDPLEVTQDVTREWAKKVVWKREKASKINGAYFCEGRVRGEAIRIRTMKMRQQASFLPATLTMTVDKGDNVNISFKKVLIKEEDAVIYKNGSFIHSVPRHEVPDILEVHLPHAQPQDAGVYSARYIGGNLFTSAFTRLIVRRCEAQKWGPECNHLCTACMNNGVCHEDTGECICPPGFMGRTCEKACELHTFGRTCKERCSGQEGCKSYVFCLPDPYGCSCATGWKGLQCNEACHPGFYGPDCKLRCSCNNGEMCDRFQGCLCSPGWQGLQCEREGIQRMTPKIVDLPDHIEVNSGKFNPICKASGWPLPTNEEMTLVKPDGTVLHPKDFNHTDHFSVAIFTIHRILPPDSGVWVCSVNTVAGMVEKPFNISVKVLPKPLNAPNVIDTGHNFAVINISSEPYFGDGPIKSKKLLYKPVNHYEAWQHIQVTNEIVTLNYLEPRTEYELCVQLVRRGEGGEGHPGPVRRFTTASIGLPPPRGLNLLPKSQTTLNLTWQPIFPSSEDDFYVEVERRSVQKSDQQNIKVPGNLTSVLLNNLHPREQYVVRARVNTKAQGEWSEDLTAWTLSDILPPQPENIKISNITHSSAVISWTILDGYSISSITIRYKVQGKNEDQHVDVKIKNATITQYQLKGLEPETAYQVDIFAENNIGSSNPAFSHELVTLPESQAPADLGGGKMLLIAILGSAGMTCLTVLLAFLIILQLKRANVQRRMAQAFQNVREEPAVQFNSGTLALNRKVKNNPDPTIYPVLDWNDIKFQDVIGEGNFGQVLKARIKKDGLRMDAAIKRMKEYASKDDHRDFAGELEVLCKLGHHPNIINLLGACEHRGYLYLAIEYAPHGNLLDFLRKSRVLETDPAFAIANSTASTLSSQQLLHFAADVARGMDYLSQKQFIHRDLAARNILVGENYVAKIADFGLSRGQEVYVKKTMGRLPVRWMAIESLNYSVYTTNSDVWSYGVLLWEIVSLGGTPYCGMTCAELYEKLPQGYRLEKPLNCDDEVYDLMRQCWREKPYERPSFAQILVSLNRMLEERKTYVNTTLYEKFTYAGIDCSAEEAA

CCN(CC)CCCCNc1ncc2cc(-c3cc(OC)cc(OC)c3)c(NC(=O)NC(C)(C)C)nc2n1
% of control [1]: 100%

CN(C)CCOc1ccc(-c2nc(-c3ccncc3)c(-c3ccc4c(c3)CC/C4=N\O)[nH]2)cc1
% of control [2]: 47%

C=CC(=O)Nc1cc(-n2c(=O)ccc3cnc4ccc(-c5ccc(NS(C)(=O)=O)cc5)cc4c32)ccc1C
% of control ([3]; at 1 µM): 90%
% of control ([3]; at 10 µM): 63%

Cc1cc([C@@H](C)Nc2ccccc2C(=O)O)c2nc(N3CCOCC3)cc(=O)n2c1 [AZD-6482]
% of control [4]: 100%

O=C(NOC[C@H](O)CO)c1ccc(F)c(F)c1Nc1ccc(I)cc1F
% of control [5]: 100%

Cc1cnc(Nc2ccc(F)cc2Cl)nc1-c1c[nH]c(C(=O)N[C@H](CO)c2cccc(Cl)c2)c1
% of inhibition [6]: 5%

Cc1cc(F)c(C(=O)Nc2cccc(-c3nncn3C(C)C)n2)cc1-n1cnc(C2CC2)c1
% of control [7]: 100%
